Reference: US20120108667A1, “HYDROXY CERAMIDES AND ANALOGS THEREOF AND THEIR USE FOR PREVENTING OR TREATING CANCER” (priority 2010, published 2012)
Values joined by “and” are separate entries in the source; they are usually repeats but may differ in a detail not shown here. Equal entries are not always repeated. Where two headings read alike, the source gives them in different places. Each block holds one compound with its values, some of them ahead of it.

Assays:
HL60 leukemia cells = conditions: previously reported; cited from earlier work
MCF7 cells [1] = assay: Cell proliferation of MCF7 cells (cell counts, Trypan blue, 24 h); format: cell-based, human; conditions: for IC50: read-out: IC50, MCF7 cell growth inhibition
Description: (§1) MCF7 cells (breast adenocarcinoma, pleural effusion) were purchased from American type Culture Collection (ATCC, Rockville, Md., USA) and grown in RPMI 1640 media (Life Technologies, Inc) supplemented with 10% fetal calf serum (FCS, Summit Biotechnology, CO, USA) and maintained under standard incubator conditions (humidified atmosphere 95% air, 5% CO2, 37° C.). A parallel set of cells was used to determine cell proliferation and to prepare lipid extracts for MS analysis.
MCF7 cells were seeded at a density of ˜50% (corresponding to 1×10^6 cells) in 10 ml of 10% FCS and, after an overnight incubation, were treated with the compounds at (0-50 μM) in ethanol (<0.1%) and the changes in cell numbers after 24 h were determined and expressed as a percentage of the untreated controls. Briefly, media were removed, cells were washed twice with PBS, detached using 1% Trypsin and centrifuged at 800 rpm. Cell pellets were resuspended in PBS and Trypan blue (Sigma Chemicals, St. Louis, Mo., USA) was added (1:1 dilution). Under a light microscope, the percentage of unstained and stained cells was assessed.

MCF7 cells [2] = assay: LC-MS/MS cellular levels of exogenously added compounds in MCF7 cells; format: cell-based, human; conditions: for cellular level of the analog, time course / cellular uptake, early level / cellular level of the analog, concentration dependent: MCF7 cells; for cellular level of the analog, time course / cellular uptake, early level: 10 μM; for cellular level of the analog, time course: up to 24 h; for cellular uptake, early level: up to ~1 h; for cellular accumulation: MCF7 cells (Example 6); for cellular level of the analog, concentration dependent: 24 h
Description: as §1
(§2) Advanced analyses were performed on a Thermo Finnigan TSQ 7000, triple-stage quadrupole mass spectrometer operating in a Multiple Reaction Monitoring (MRM) positive ionization mode as described (J. Bielawski, et al., Methods 39 (2006), p. 82; J. Bielawski, et al., Methods Mol. Biol. 579 (2009), p. 443). Quantitative analysis of the cellular level of 2′-OH—C6-Cers/dhCers and C6-Cer/dhCer was based on the calibration curves generated by spiking an artificial matrix with known amounts of target standards and an equal amount of the internal standard (IS). The target analyte to IS peak area ratios from the samples were similarly normalized to their respective IS and compared to the calibration curves using a linear regression model. Final results were expressed as the level of the particular SPLs/phospholipids (Pi) determined from the Bligh & Dyer lipid extract and expressed as SPLs/Pi (pmol/nmol).

[3] = tested on: endogenous SPLs in MCF7 cells; assay: LC-MS/MS analysis of endogenous SPLs in treated MCF7 cells; format: cell-based, human; conditions: for elevation of cellular dhCer: 40 μM treatment
Description: as §1, §2

dhCer desaturase = target: T1, dhCer desaturase (Homo sapiens, UniProt O15121); assay: Conversion of C6-dhCer analogs to their unsaturated analogs in MCF7 cells; format: cell-based; conditions: 24 h treatment
T1 construct: endogenous in cells; host or cells: MCF7
T1 sequence (O15121 1-323): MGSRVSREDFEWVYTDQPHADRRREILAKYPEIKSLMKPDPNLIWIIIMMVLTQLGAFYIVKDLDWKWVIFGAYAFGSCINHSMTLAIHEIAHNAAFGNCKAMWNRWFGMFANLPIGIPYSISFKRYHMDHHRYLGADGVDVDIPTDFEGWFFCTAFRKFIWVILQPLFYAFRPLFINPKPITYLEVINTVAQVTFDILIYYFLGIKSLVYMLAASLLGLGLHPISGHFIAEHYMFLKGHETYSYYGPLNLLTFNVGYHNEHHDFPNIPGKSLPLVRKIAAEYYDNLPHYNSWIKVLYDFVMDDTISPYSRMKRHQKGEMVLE
Description: as §2

[4] = 10 μM, time-dependent experiment, data not shown

SMILES: CCCCCCCCCCCCC/C=C/[C@@H](O)[C@H](CO)NC(=O)[C@H](C)O [(2′S)-2′-OH—C3-Cer]
potency relative to the other isomer (HL60 leukemia cells): much more potent then its (2′R)-isomer

IC50 (MCF7 cells [1]; listed as C6-ceramide): 12 µM
IC50 (MCF7 cells [1]): ~12 µM
cellular uptake, early level (MCF7 cells [2]): highest levels
SMILES: CCCCCCCCCCCCC/C=C/[C@@H](O)[C@H](CO)NC(=O)CCCCC [C6-Cer]
cellular level of the analog, time course (MCF7 cells [2]): progressively increased up to 5 h followed by decrease at 24 h
cellular Cers level, time dependent ([3]; 10 μM, at 24 h): 350%
cellular Cers level, time dependent ([3]; 10 μM, up to 5 h): 500%
increase of C14-Cer ([3]; 20 μM treatment, 24 h): ~40 fold
increase of C16-Cer ([3]; 20 μM treatment, 24 h): ~20 fold
increase of C18-Cer ([3]; 20 μM treatment, 24 h): ~80 fold
increase of C24-Cer ([3]; 20 μM treatment, 24 h): ~0.2 fold
increase of C24:1-Cer ([3]; 20 μM treatment, 24 h): fivefold
cellular S1P level ([3]; 20 μM, 24 h): 800%
endogenous Cer (total) level ([3]; 20 μM, 24 h): up to 900%
endogenous Sph level ([3]; 20 μM, 24 h): ≤ 600%
concentration from which all Cer species are elevated ([3]; 24 h): ≥ 5 µM
influence on levels of cellular Cers/dhCers ([3]; MCF7 cells): significantly increased the levels of their cellular long chain homologs
metabolism/conversion to cellular long chain 2′-OH homologs (2′-OHCer analogs) ([3]; MCF7 cells): not converted to the cellular 2′-OHCer analogs

IC50 (MCF7 cells [1]): ~38 µM and 38 µM
conversion to the corresponding unsaturated analog (dhCer desaturase): 42%
SMILES: CCCCCCCCCCCCCCC[C@@H](O)[C@H](CO)NC(=O)CCCCC [C6-dhCer]
concentration at which an inhibitory effect on cell growth is caused (MCF7 cells [1]): higher than 10 μM
cellular level of the analog, time course (MCF7 cells [2]): followed the curve of C6-Cer, however at a lower rate
effect on Cer species, time dependent ([3]; 10 μM): elevated all Cer species
effect on cellular Sph, time dependent ([3]; 10 μM): slightly increased
cellular Cers level, time dependent ([3]; 10 μM, at 24 h): 280%
cellular dhCers level, time dependent ([3]; 10 μM, at 24 h): decreased to almost control level
effect on dhCer species, time dependent ([3]; 10 μM, data not shown): elevated all dhCer species
cellular Cers level, time dependent ([3]; 10 μM, up to 5 h): 310%
cellular dhCers level, time dependent ([3]; 10 μM, up to 5 h): 750%
elevation of cellular dhCer ([3]; 24 h): ~7 fold
endogenous Cer level ([3]; 40 μM, 24 h): 550%
increase of cellular dhSph ([3]; 40 μM, 24 h): ~5 fold
elevation of dhC16-Cer (C16-dhCer) ([3]; 24 h, results not shown): ≤ 13 fold
C16-Cer/C16-dhCer fold ratio ([3]; MCF7 cells): 50/13
influence on levels of cellular Cers/dhCers ([3]; MCF7 cells): significantly increased the levels of their cellular long chain homologs
cellular Sph level (decrease to) ([3]; at a low concentration, 24 h): ~70%
effect on cellular dhCers ([3]; up to 10 μM, 24 h): did not induce elevation of cellular dhCers

cellular accumulation (MCF7 cells [2]): low cellular accumulation
cellular uptake, early level (MCF7 cells [2]): highest levels
cellular level of the analog, concentration dependent (MCF7 cells [2]): lowest level
SMILES: CCCCCCCCCCCCC/C=C/[C@@H](O)[C@H](CO)NC(=O)[C@H](O)CCCC [LCL366, (2S,3R,2′R,4E)-2′-Hydroxy-C6-ceramide]
cellular level of the analog, time course (MCF7 cells [2]): progressively decreased to the lowest level among all tested analogs at 24 h

cellular accumulation (MCF7 cells [2]): higher cellular accumulation
cellular level of the analog, concentration dependent (MCF7 cells [2]): highest level
SMILES: CCCCCCCCCCCCC/C=C/[C@@H](O)[C@H](CO)NC(=O)[C@@H](O)CCCC [LCL367, (2S,3R,2′S,4E)-2′-Hydroxy-C6-ceramide]
cellular level of the analog, time course (MCF7 cells [2]): elevated up to 2.5 h followed by a small decrease at 5 h and plateau to 24 h

IC50 (MCF7 cells [1]; listed as (2′S)-2′-OH—C6-dhCer): ~12 µM and 12 µM
conversion to the corresponding unsaturated analog (dhCer desaturase): up to 12%
SMILES: CCCCCCCCCCCCCCC[C@@H](O)[C@H](CO)NC(=O)[C@@H](O)CCCC [LCL466, (2S,3R,2′S)-2′-Hydroxy-C6-dihydroceramide]
cellular level of the analog, time course (MCF7 cells [2]): elevated up to 5 h reaching the level of C6-dhCer and remaining constant up to 24 h
effect on Cer species, time dependent ([3]; 10 μM): elevated all Cer species
cellular Cers level, time dependent ([3]; 10 μM, at 24 h): the same as for 5 h treatment
cellular dhCers level, time dependent ([3]; 10 μM, at 24 h): the same as for 5 h treatment
effect on dhCer species, time dependent ([3]; 10 μM, data not shown): elevated all dhCer species
cellular Cers level, time dependent ([3]; 10 μM, up to 5 h): 200%
cellular dhCers level, time dependent ([3]; 10 μM, up to 5 h): 200%
elevation of cellular dhCer ([3]; 24 h): ~19 fold
increase of cellular dhSph ([3]; 40 μM, 24 h): ~16 fold
cellular Sph level, concentration dependent ([3]; 24 h): elevation of cellular Sph
elevation of dhC16-Cer (C16-dhCer) ([3]; 24 h, results not shown): up to 25 fold
C16-Cer/C16-dhCer fold ratio ([3]; MCF7 cells): 50/25
effectiveness as inducer of cellular dhCers, Cers, dhSph and Sph ([3]; MCF7 cells): three time more effective than C6-dhCer

IC50 (MCF7 cells [1]; listed as (2′R)-2′-OH—C6-dhCer): ~8 µM and 8 µM
conversion to the corresponding unsaturated analog (dhCer desaturase): up to 5%
SMILES: CCCCCCCCCCCCCCC[C@@H](O)[C@H](CO)NC(=O)[C@H](O)CCCC [LCL467, (2S,3R,2′R)-2′-Hydroxy-C6-dihydroceramide]
effect of 20 μM treatment on cells (MCF7 cells [1]; 20 μM): total cell death
cellular level of the analog, time course (MCF7 cells [2]): showed the lowest level, remaining in a plateau between 2.5-24 h
endogenous Cer (total) level ([3]; 10 μM, 24 h, concentration-dependent experiment): ~150%
cellular Cers level, time dependent ([3]; 10 μM, at 24 h): ~140%
cellular dhCers level, time dependent ([3]; 10 μM, at 24 h): remained unchanged
decrease of long chain dhCers [3, 4]: 10-25%
increase of very long chain dhCers [3, 4]: 20-30%
cellular Cers level, time dependent ([3]; 10 μM, up to 5 h): did not affect
cellular dhCers level, time dependent ([3]; 10 μM, up to 5 h): did not affect
decrease of C16-Cer ([3]; 1-5 μM, 24 h): up to 60%
cellular Sph level, concentration dependent ([3]; 24 h): ~80%
effect on cellular dhSph ([3]; 24 h): did not affect
C14-dhCer level (decrease to) ([3]; 24 h, results not shown): 25 % control
elevation of dhC16-Cer (C16-dhCer) ([3]; 24 h, results not shown): did not elevate
effectiveness as inducer of cellular dhCers, Cers, dhSph and Sph ([3]; MCF7 cells): not effective
effect on cellular Cer ([3]; up to 5 μM, 24 h): did not affect
